Data reported in patent US9040545B2, “Heterocyclyl pyrazolopyrimidine analogues as selective JAK inhibitors” (Cellzome Limited, priority 2010, dated 2015).

Tests used:
JAK2 = target: T1, JAK2 (Homo sapiens, UniProt O60674); experiment: Kinobeads assay, JAK2; format: binding; conditions: mixed Molt4/Ramos lysate, read-out: Inhibition values (IC50) JAK2
T1 construct: endogenous in cells; host or cells: mixed Molt4/Ramos lysate (1:2)
Protocol: (§1) The compounds of the present invention as described in the previous examples were tested in a Kinobeads™ assay as described for ZAP-70 (WO-A 2007/137867). Briefly, test compounds (at various concentrations) and the affinity matrix with the immobilized aminopyrido-pyrimidine ligand 24 were added to cell lysate aliquots and allowed to bind to the proteins in the lysate sample. After the incubation time the beads with captured proteins were separated from the lysate. Bound proteins were then eluted and the presence of JAK2 and JAK3 was detected and quantified using specific antibodies in a dot blot procedure and the Odyssey infrared detection system. Dose response curves for individual kinases were generated and IC50 values calculated. Kinobeads™ assays for ZAP-70 (WO-A 2007/137867) and for kinase selectivity profiling (WO-A 2006/134056) have been previously described.
(§2) The affinity matrix was washed two times with 15 mL of 1×DP buffer containing 0.2% NP40 (IGEPAL® CA-630, Sigma, #I3021) and then resuspended in 1×DP buffer containing 0.2% NP40 (3% beads slurry).
(§3) 5×DP buffer 250 mM Tris-HCl pH 7.4, 25% Glycerol, 7.5 mM MgCl2, 750 mM NaCl, 5 mM Na3VO4; filter the 5×DP buffer through a 0.22 μm filter and store in aliquots at −80° C. The 5×DP buffer is diluted with H2O to 1×DP buffer containing 1 mM DTT and 25 mM NaF.
(§4) Stock solutions of test compounds were prepared in DMSO. In a 96 well plate 30 μL solution of diluted test compounds at 5 mM in DMSO were prepared. Starting with this solution a 1:3 dilution series (9 steps) was prepared. For control experiments (no test compound) a buffer containing 2% DMSO was used.
Molt4 cells (ATCC catalogue number CRL-1582) and Ramos cells (ATCC catalogue number CRL-1596) were grown in 1 L Spinner flasks (Integra Biosciences, #182101) in suspension in RPMI 1640 medium (Invitrogen, #21875-034) supplemented with 10% Fetal Bovine Serum (Invitrogen) at a density between 0.15×106 and 1.2×10^6 cells/mL. Cells were harvested by centrifugation, washed once with 1×PBS buffer (Invitrogen, #14190-094) and cell pellets were frozen in liquid nitrogen and subsequently stored at −80° C. Cells were homogenized in a Potter S homogenizer in lysis buffer: 50 mM Tris-HCl, 0.8% NP40, 5% glycerol, 150 mM NaCl, 1.5 mM MgCl2, 25 mM NaF, 1 mM sodium vanadate, 1 mM DTT, pH 7.5. One complete EDTA-free tablet (protease inhibitor cocktail, Roche Diagnostics, 1873580) per 25 mL buffer was added. The material was dounced 10 times using a mechanized POTTER S, transferred to 50 mL falcon tubes, incubated for 30 minutes on ice and spun down for 10 minutes at 20,000 g at 4° C. (10,000 rpm in Sorvall SLA600, precooled). The supernatant was transferred to an ultracentrifuge (UZ)-polycarbonate tube (Beckmann, 355654) and spun for 1 hour at 100,000 g at 4° C. (33.500 rpm in Ti50.2, precooled). The supernatant was transferred again to a fresh 50 mL falcon tube, the protein concentration was determined by a Bradford assay (BioRad) and samples containing 50 mg of protein per aliquot were prepared. The samples were immediately used for experiments or frozen in liquid nitrogen and stored frozen at −80° C.
(§5) Cell lysate (approximately 50 mg protein per plate) was thawed in a water bath at room temperature and then stored on ice. To the thawed cell lysate 1×DP 0.8% NP40 buffer containing protease inhibitors (1 tablet for 25 mL buffer; EDTA-free protease inhibitor cocktail; Roche Diagnostics 1873580) was added in order to reach a final protein concentration of 10 mg/mL total protein. The diluted cell lysate was stored on ice. Mixed Molt4/Ramos lysate was prepared by combining one volume of Molt4 lysate and two volumes of Ramos lysate (ratio 1:2).
To a 96 well filter plate (Multiscreen HTS, BV Filter Plates, Millipore #MSBVN1250) were added per well: 100 μL affinity matrix (3% beads slurry), 3 μL of compound solution, and 50 μL of diluted lysate. […]

Aurora B = target: T2, Aurora B (Homo sapiens, UniProt Q96GD4); experiment: Kinobeads assay, Aurora B; format: binding; conditions: for IC50: lysate of pervanadate-treated Jurkat cells, read-out: Inhibition values (IC50) Aur B
T2 construct: cell lysates from Jurkat cells (ATCC TIB-152) used; endogenous in cells; host or cells: Jurkat cells (ATCC TIB-152), treated with pervanadate
Protocol: as §1, §2, §3, §4, §5
To a 96 well filter plate (Multiscreen HTS, BV Filter Plates, Millipore #MSBVN1250) were added per well: 100 μL affinity matrix (3% beads slurry), 3 μL of compound solution, and 50 μL of diluted lysate. Plates were sealed and incubated for 3 hours in a cold room on a plate shaker (Heidolph tiramax 1000) at 750 rpm. Afterwards the plate was washed 3 times with 230 μL washing buffer (1×DP 0.4% NP40). The filter plate was placed on top of a collection 1 plate (Greiner bio-one, PP-microplate 96 well V-shape, 65120) and the beads were then eluted with 20 μL of sample buffer (100 mM Tris, pH 7.4, 4% SDS, 0.00025% bromophenol blue, 20% glycerol, 50 mM DTT). The eluate was frozen quickly at −80° C. and stored at −20° C.
The kinases in the eluates were detected and quantified by spotting on nitrocellulose membranes and using a first antibody directed against the kinase of interest and a fluorescently labelled secondary antibody (anti-rabbit IRDye™ antibody 800 (Licor, #926-32211). The Odyssey Infrared Imaging system from LI-COR Biosciences (Lincoln, Nebr., USA) was operated according to instructions provided by the manufacturer (Schutz-Geschwendener et al, 2004. Quantitative, two-color Western blot detection with infrared fluorescence. Published May 2004 by LI-COR Biosciences, www.licor.com).
After spotting of the eluates the nitrocellulose membrane (BioTrace NT; PALL, #BTNT30R) was first blocked by incubation with Odyssey blocking buffer (LICOR, 927-40000) for 1 hour at room temperature. Blocked membranes were then incubated for 16 hours at the temperature shown in Table 5 with the first antibody diluted in Odyssey blocking buffer (LICOR #927-40000). Afterwards the membrane was washed twice for 10 minutes with PBS buffer containing 0.2% Tween 20 at room temperature. […]

T1 sequence (O60674 whole entry): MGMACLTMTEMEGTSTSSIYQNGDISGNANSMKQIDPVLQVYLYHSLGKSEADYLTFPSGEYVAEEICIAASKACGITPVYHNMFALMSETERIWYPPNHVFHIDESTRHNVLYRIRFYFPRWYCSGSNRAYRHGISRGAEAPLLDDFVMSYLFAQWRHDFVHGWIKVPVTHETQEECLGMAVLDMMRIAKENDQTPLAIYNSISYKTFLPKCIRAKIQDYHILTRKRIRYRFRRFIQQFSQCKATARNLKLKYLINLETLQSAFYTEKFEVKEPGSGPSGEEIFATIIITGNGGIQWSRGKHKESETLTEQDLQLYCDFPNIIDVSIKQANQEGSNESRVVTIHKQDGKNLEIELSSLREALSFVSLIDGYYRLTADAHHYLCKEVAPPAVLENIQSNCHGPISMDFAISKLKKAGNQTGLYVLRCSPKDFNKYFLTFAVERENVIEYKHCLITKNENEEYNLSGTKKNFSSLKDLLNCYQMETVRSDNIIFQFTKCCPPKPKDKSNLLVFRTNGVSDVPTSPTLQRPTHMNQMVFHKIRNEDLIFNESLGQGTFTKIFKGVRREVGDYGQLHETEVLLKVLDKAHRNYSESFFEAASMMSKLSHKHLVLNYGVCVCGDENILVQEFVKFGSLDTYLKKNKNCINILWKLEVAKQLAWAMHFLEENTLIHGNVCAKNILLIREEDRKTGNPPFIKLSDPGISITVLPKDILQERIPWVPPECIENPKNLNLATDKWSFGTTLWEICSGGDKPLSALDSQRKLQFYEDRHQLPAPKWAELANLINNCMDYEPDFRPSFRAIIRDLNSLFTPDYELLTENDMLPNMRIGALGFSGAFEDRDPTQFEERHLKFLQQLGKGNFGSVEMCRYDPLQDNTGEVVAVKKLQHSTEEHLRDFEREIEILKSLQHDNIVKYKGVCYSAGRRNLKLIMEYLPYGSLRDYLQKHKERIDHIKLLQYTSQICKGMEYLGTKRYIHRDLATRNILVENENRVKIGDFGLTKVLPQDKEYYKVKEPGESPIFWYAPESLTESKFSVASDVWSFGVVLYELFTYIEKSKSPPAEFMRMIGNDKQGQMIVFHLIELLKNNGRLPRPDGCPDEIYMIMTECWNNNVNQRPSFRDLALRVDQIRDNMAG
T2 sequence (Q96GD4 whole entry): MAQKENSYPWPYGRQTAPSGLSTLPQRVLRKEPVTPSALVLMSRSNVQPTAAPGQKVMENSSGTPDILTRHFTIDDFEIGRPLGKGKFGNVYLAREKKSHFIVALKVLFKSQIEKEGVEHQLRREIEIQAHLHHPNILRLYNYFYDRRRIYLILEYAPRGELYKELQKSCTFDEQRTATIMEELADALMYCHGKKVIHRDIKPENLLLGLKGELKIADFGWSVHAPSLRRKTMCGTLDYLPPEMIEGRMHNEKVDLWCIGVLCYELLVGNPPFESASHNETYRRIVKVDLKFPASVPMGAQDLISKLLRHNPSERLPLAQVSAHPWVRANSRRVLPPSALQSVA

Compound | IC50 (JAK2) [nM] | JAK3/AurB Fold Selectivity (Aurora B) | IC50 (Aurora B) [nM]
Cn1cc(Nc2ncc3cnn(Cc4cccc(N5CCS(=O)(=O)CC5)c4)c3n2)cn1 [Example 25, 4-(3-((6-((1-Methyl-1H-pyrazol-4-yl)amino)-1H-pyrazolo[3,4-d]pyrimidin-1-yl)methyl)phenyl)thiomorpholine 1,1-dioxide] | ≥ 10000 | 10-50 Fold | 100 to 1000
O=C(CCn1cc(Nc2ncc3cnn(Cc4cccc(N5CCOCC5)c4)c3n2)cn1)N1CCCCC1 [Example 20, 3-(4-((1-(3-Morpholinobenzyl)-1H-pyrazolo[3,4-d]pyrimidin-6-yl)amino)-1H-pyrazol-1-yl)-1-(piperidin-1-yl)propan-1-one] | ≥ 10000 | >50 Fold | 1000 to 10000
CC(CN(C)C)Cn1cc(Nc2ncc3cnn(Cc4cccc(N5CCOCC5)c4)c3n2)cn1 (stereo not drawn) [Example 32, N-(1-(3-(Dimethylamino)-2-methylpropyl)-1H-pyrazol-4-yl)-1-(3-morpholinobenzyl)-1H-pyrazolo[3,4-d]pyrimidin-6-amine] | ≥ 10000 | >50 Fold | 1000 to 10000
Cn1cc(Nc2ncc3cnn(Cc4c(F)c(F)cc(N5CCOCC5)c4F)c3n2)cn1 [Example 17, N-(1-Methyl-1H-pyrazol-4-yl)-1-(2,3,6-trifluoro-5-morpholinobenzyl)-1H-pyrazolo[3,4-d]pyrimidin-6-amine] | 1000 to 10000 | 10-50 Fold | 100 to 1000
C[C@@H]1COCCN1c1cccc(Cn2ncc3cnc(Nc4cnn(C)c4)nc32)n1 [Example 1, (R)—N-(1-Methyl-1H-pyrazol-4-yl)-1-((6-(3-methylmorpholino)pyridin-2-yl)methyl)-1H-pyrazolo[3,4-d]pyrimidin-6-amine] | ≥ 10000 | 10-50 Fold | 1000 to 10000
O=C(CCn1cc(Nc2ncc3cnn(Cc4cccc(N5CCOCC5)c4)c3n2)cn1)NC1CC1 [Example 35, N-Cyclopropyl-3-(4-((1-(3-morpholinobenzyl)-1H-pyrazolo[3,4-d]pyrimidin-6-yl)amino)-1H-pyrazol-1-yl)propanamide] | ≥ 10000 | 10-50 Fold | 1000 to 10000
OCCn1cc(Nc2ncc3cnn(Cc4cccc(N5CCOCC5)c4F)c3n2)cn1 [Example 39, 2-(4-((1-(2-Fluoro-3-morpholinobenzyl)-1H-pyrazolo[3,4-d]pyrimidin-6-yl)amino)-1H-pyrazol-1-yl)ethanol] | 1000 to 10000 | 10-50 Fold | 100 to 1000
CN(C)CC1(Cn2cc(Nc3ncc4cnn(Cc5cccc(N6CCOCC6)c5)c4n3)cn2)COC1 [Example 31, N-(1-((3-((Dimethylamino)methyl)oxetan-3-yl)methyl)-1H-pyrazol-4-yl)-1-(3-morpholinobenzyl)-1H-pyrazolo[3,4-d]pyrimidin-6-amine] | ≥ 10000 | >50 Fold | 1000 to 10000
OCCn1cc(Nc2ncc3cnn(Cc4cccc(N5CCOCC5)c4)c3n2)cn1 [Example 5, 2-(4-((1-(3-Morpholinobenzyl)-1H-pyrazolo[3,4-d]pyrimidin-6-yl)amino)-1H-pyrazol-1-yl)ethanol] | ≥ 10000 | >50 Fold | 100 to 1000

Continued, values first:

IC50 (JAK2) [nM] | JAK3/AurB Fold Selectivity (Aurora B) | IC50 (Aurora B) [nM] | Compound
100 to 1000 | >50 Fold | 1000 to 10000 | Cn1cc(Nc2ncc3cnn(Cc4cc(F)cc(-c5cnn(C)c5)c4)c3n2)cn1 [Example 125, 1-(3-fluoro-5-(1-methyl-1H-pyrazol-4-yl)benzyl)-N-(1-methyl-1H-pyrazol-4-yl)-1H-pyrazolo[3,4-d]pyrimidin-6-amine]
1000 to 10000 | >50 Fold | 1000 to 10000 | CCn1cc(-c2cccc(Cn3ncc4cnc(Nc5cnn(C)c5)nc43)c2)cn1 [Example 116, 1-(3-(1-ethyl-1H-pyrazol-4-yl)benzyl)-N-(1-methyl-1H-pyrazol-4-yl)-1H-pyrazolo[3,4-d]pyrimidin-6-amine]
100 to 1000 | 10-50 Fold | 100 to 1000 | O=C1COCCN1c1cc(F)cc(Cn2ncc3cnc(Nc4cnn(C5CCNCC5)c4)nc32)c1 [Example 102, 4-(3-fluoro-5-((6-((1-(piperidin-4-yl)-1H-pyrazol-4-yl)amino)-1H-pyrazolo[3,4-d]pyrimidin-1-yl)methyl)phenyl)morpholin-3-one]
1000 to 10000 | >50 Fold | 100 to 1000 | Cn1cc(-c2cccc(Cn3ncc4cnc(Nc5cnn(CCO)c5)nc43)c2)cn1 [Example 122, 2-(4-((1-(3-(1-methyl-1H-pyrazol-4-yl)benzyl)-1H-pyrazolo[3,4-d]pyrimidin-6-yl)amino)-1H-pyrazol-1-yl)ethanol]
1000 to 10000 | 10-50 Fold | 100 to 1000 | Cn1cc(-c2cccc(Cn3ncc4cnc(Nc5cnn(CCO)c5)nc43)c2F)cn1 [Example 124, 2-(4-((1-(2-fluoro-3-(1-methyl-1H-pyrazol-4-yl)benzyl)-1H-pyrazolo[3,4-d]pyrimidin-6-yl)amino)-1H-pyrazol-1-yl)ethanol]
1000 to 10000 | >50 Fold | 1000 to 10000 | Cn1cc(Nc2ncc3cnn(Cc4cccc(-c5cnn(C)c5)c4F)c3n2)cn1 [Example 123, 1-(2-fluoro-3-(1-methyl-1H-pyrazol-4-yl)benzyl)-N-(1-methyl-1H-pyrazol-4-yl)-1H-pyrazolo[3,4-d]pyrimidin-6-amine]
≥ 10000 | 10-50 Fold | 1000 to 10000 | Cn1cc(Nc2ncc3cnn(Cc4cccc(N5CCC(=O)CC5)c4)c3n2)cn1 [Example 108, 1-(3-((6-((1-methyl-1H-pyrazol-4-yl)amino)-1H-pyrazolo[3,4-d]pyrimidin-1-yl)methyl)phenyl)piperidin-4-one]
